# Measurements as given in patent publication US5030760A, “Tetrahydrophthalimides, and their production and use” (Sumitomo Chemical Company, Ltd., priority 1981, dated 1991).
# Tests used:
# green foxtail [1] = experiment: Test Example 4, pre-emergence treatment, herbicidal activity; assay type: in vivo, Setaria viridis; settings: 20 days; also: ranges in brackets are in %
# Procedure: (§1) The application of the tetrahydrophthalimides (I) as herbicides will be illustratively shown in the following Examples wherein the phytotoxicity to cultivated plants and the herbicidal activity on weeds were evaluated as follows: the aerial parts of the test plants were cut off and weighed (fresh weight); the percentage of the fresh weight of the treated plant to that of the untreated plant was calculated with the latter fresh weight taken as 100; and the crop damage and the herbicidal activity were evaluated by the standard given in the table below. The rating values of phytotoxicity, 0 and 1, and those of herbicidal effect, 5 and 4, are generally regarded as satisfactory to protect cultivated plants and control weeds, respectively. The rating values in the paddy field test alone were calculated from the dry weight of the test plants.
# (§2) Plastic beakers (diameter, 10 cm; height, 10 cm) were filled with upland field soil, and the seeds of corn, cotton and soybean and the seeds of morningglory, velvetleaf, Johnsongrass and green foxtail were separately sown in the beakers. A designed amount of the test compound was sprayed over the top by means of a small hand sprayer. After the spraying, the test plants were grown for 20 days in the greenhouse, and herbicidal activity and phytotoxicity were examined. In this pre-emergence treatment, the test compounds were formulated into an emulsifiable concentrate according to Preparation Example 2 and applied at a spray volume of 5 liters per are by dispersing it in water with the addition of a spreading agent.
# jimsonweed = experiment: Test Example 5, spraying over the top, herbicidal activity; assay type: in vivo, Datura stramonium; settings: sprayed over the top, 20 days; also: ranges in brackets are in %
# Procedure: as §1
# (§3) Plastic trays (35 cm×25 cm×15 cm) were filled with upland field soil, and the seeds of tall morningglory, velvetleaf, jimsonweed, sicklepod, hemp sesbania, prickly side, Johnsongrass, green foxtail and large crabgrass and the seeds of soybean were sown therein. A designed amount of the test compound formulated into a wettable powder according to Preparation Example 1 and dispersed in water was sprayed over the top by means of a small hand sprayer at a spray volume of 5 liters per are. After the spraying, the test plants were grown in greenhouse for 20 days, and phytotoxicity and herbicidal activity were examined.
# barnyardgrass [2] = experiment: Test Example 6, paddy pot perfusion, herbicidal activity; assay type: in vivo, Echinochloa crus-galli; settings: 3 weeks, dry weight; also: ranges in brackets are in %
# Procedure: as §1
# (§4) Wagner's pots (1/5000 are) were filled with paddy field soil containing the seeds of broad-leaved weeds (e.g. monochoria, false pimpernel, toothcup) and the seeds of barnyardgrass and hardstem bulrush, and water was poured therein until the depth of water became 4 cm. Rice seedlings of the 3.5-leaf stage and the tubers of arrowhead were transplanted therein and grown for 2 days in a greenhouse. A designed amount of the test compound formulated in an emulsifiable concentrate according to Preparation Example 2 was applied to the pots by perfusion. Thereafter, the test plants were grown for an additional 3 weeks in the greenhouse, and herbicidal activity and phytotoxicity were examined. In this treatment, the emulsifiable concentrate was dispersed in water for application at a perfusion volume of 10 liters per are.
# Johnsongrass [3] = experiment: Test Example 4, pre-emergence treatment, herbicidal activity; assay type: in vivo, Sorghum halepense; settings: 20 days; also: ranges in brackets are in %
# Procedure: as §1, §2
# morningglory = experiment: as above; assay type: in vivo; settings: 20 days
# Procedure: as §1, §2
# arrowhead = experiment: Test Example 6, paddy pot perfusion, herbicidal activity; assay type: in vivo, Sagittaria pygmaea; settings: 3 weeks, dry weight; also: ranges in brackets are in %
# Procedure: as §1, §4
# corn [4] = experiment: Test Example 1, foliar treatment, phytotoxicity to corn; assay type: in vivo; settings: 3 weeks; also: ranges in brackets are in %
# Summary of the method: (§5)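 Plants were sown in upland soil and grown 2 weeks in a greenhouse, then sprayed on the foliage with the compound as an emulsifiable concentrate dispersed in water with a spreading agent (5 liters per are). After 3 further weeks, aerial fresh weight relative to untreated (taken as 100) was converted to a rating.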
# broad-leaved weed = experiment: Test Example 6, paddy pot perfusion, herbicidal activity; assay type: in vivo, monochoria, false pimpernel, toothcup; settings: 3 weeks, dry weight; also: ranges in brackets are in %
# Procedure: as §1, §4
# tall morningglory = experiment: Test Example 5, spraying over the top, herbicidal activity; assay type: in vivo, Ipomoea purpurea; settings: sprayed over the top, 20 days; also: ranges in brackets are in %
# Procedure: as §1, §3
# prickly sida = experiment: as above; assay type: in vivo, Sida spinosa; settings: sprayed over the top, 20 days; also: ranges in brackets are in %
# Procedure: as §1, §3
# Johnsongrass [5] = experiment: as above; assay type: in vivo, Sorghum halepense; settings: sprayed over the top, 20 days
# Procedure: as §1, §3
# cotton = experiment: Test Example 4, pre-emergence treatment, phytotoxicity to cotton; assay type: in vivo; settings: 20 days; also: ranges in brackets are in %
# Procedure: as §1, §2
# soybean [6] = experiment: Test Example 4, pre-emergence treatment, phytotoxicity to soybean; assay type: in vivo; settings: 20 days; also: ranges in brackets are in %
# Procedure: as §1, §2
# velvetleaf [7] = experiment: Test Example 1, foliar treatment, herbicidal activity; assay type: in vivo, Abutilon theophrasti; settings: 3 weeks; also: ranges in brackets are in %
# Summary of the method: as §5
# rice plant = experiment: Test Example 6, paddy pot perfusion, phytotoxicity to rice plant; assay type: in vivo; settings: 3 weeks, dry weight; also: ranges in brackets are in %
# Procedure: as §1, §4
# soybean [8] = experiment: Test Example 5, spraying over the top, phytotoxicity to soybean; assay type: in vivo; settings: sprayed over the top, 20 days; also: ranges in brackets are in %
# Procedure: as §1, §3
# velvetleaf [9] = experiment: Test Example 5, spraying over the top, herbicidal activity; assay type: in vivo, Abutilon theophrasti; settings: sprayed over the top, 20 days; also: ranges in brackets are in %
# Procedure: as §1, §3
# corn [10] = experiment: Test Example 4, pre-emergence treatment, phytotoxicity to corn; assay type: in vivo; settings: 20 days; also: ranges in brackets are in %
# Procedure: as §1, §2
# sicklepod = experiment: Test Example 5, spraying over the top, herbicidal activity; assay type: in vivo, Cassia obtusifolia; settings: sprayed over the top, 20 days; also: ranges in brackets are in %
# Procedure: as §1, §3
# hemp sesbania = experiment: as above; assay type: in vivo, Sesbania exaltator; settings: sprayed over the top, 20 days; also: ranges in brackets are in %
# Procedure: as §1, §3
# wild mustard = experiment: Test Example 1, foliar treatment, herbicidal activity; assay type: in vivo, Brassica kaber; settings: 3 weeks
# Summary of the method: as §5
# barnyardgrass [11] = experiment: as above; assay type: in vivo, Echinochloa crus-galli; settings: 3 weeks
# Summary of the method: as §5
# hardstem bulrush = experiment: Test Example 6, paddy pot perfusion, herbicidal activity; assay type: in vivo, Scirpus juncoides; settings: 2.5 g/are, 3 weeks, dry weight; also: ranges in brackets are in %
# Procedure: as §1, §4
# wild oat = experiment: Test Example 1, foliar treatment, herbicidal activity; assay type: in vivo, Avena fatua; settings: 3 weeks; also: ranges in brackets are in %
# Summary of the method: as §5
# velvetleaf [12] = experiment: Test Example 4, pre-emergence treatment, herbicidal activity; assay type: in vivo, Abutilon theophrasti; settings: 20 days; also: ranges in brackets are in %
# Procedure: as §1, §2
# green foxtail [13] = experiment: Test Example 5, spraying over the top, herbicidal activity; assay type: in vivo, Setaria viridis; settings: sprayed over the top, 20 days; also: ranges in brackets are in %
# Procedure: as §1, §3
# large crabgrass = experiment: as above; assay type: in vivo, Digitaria sanguinalis; settings: sprayed over the top, 20 days; also: ranges in brackets are in %
# Procedure: as §1, §3
# For Herbicidal activity, Barnyardgrass in this document: ranges in brackets are in %.
# For Herbicidal activity, Morningglory in this document: ranges in brackets are in %.
smiles,measurement,setting,value
COc1cc(N2C(=O)C3=C(CCCC3)C2=O)c(F)cc1Cl [Compound No. 1],"Herbicidal activity, Green foxtail",green foxtail [1]; 2.5 g/are,4 (1-10)
same,"Herbicidal activity, Green foxtail",green foxtail [1]; 10 g/are,5 (0)
same,"Herbicidal activity, Jimsonweed",jimsonweed; 3 g/are,5 (0)
same,"Herbicidal activity, Jimsonweed",jimsonweed; 9 g/are,5 (0)
same,"Herbicidal activity, Barnyardgrass",barnyardgrass [2]; 1.25 g/are,4 (1-10)
same,"Herbicidal activity, Barnyardgrass",barnyardgrass [2]; 2.5 g/are,5 (0)
same,"Herbicidal activity, Johnsongrass",Johnsongrass [3]; 2.5 g/are,5 (0)
same,"Herbicidal activity, Johnsongrass",Johnsongrass [3]; 10 g/are,5 (0)
same,"Herbicidal activity, Morningglory",morningglory; 2.5 g/are,4 (1-10)
same,"Herbicidal activity, Morningglory",morningglory; 10 g/are,5 (0)
same,"Herbicidal activity, Arrowhead",arrowhead; 1.25 g/are,4 (1-10)
same,"Herbicidal activity, Arrowhead",arrowhead; 2.5 g/are,5 (0)
same,"Phytotoxicity, Corn",corn [4]; 1.25 g/are,0 (100)
same,"Phytotoxicity, Corn",corn [4]; 5 g/are,1 (90-99)
same,"Herbicidal activity, Broad-leaved weed",broad-leaved weed; 1.25 g/are,5 (0)
same,"Herbicidal activity, Broad-leaved weed",broad-leaved weed; 2.5 g/are,5 (0)
same,"Herbicidal activity, Tall morningglory",tall morningglory; 3 g/are,4 (1-10)
same,"Herbicidal activity, Tall morningglory",tall morningglory; 9 g/are,5 (0)
same,"Herbicidal activity, Prickly sida",prickly sida; 3 g/are,5 (0)
same,"Herbicidal activity, Prickly sida",prickly sida; 9 g/are,5 (0)
same,"Herbicidal activity, Johnsongrass",Johnsongrass [5]; 3 g/are,5 (0)
same,"Herbicidal activity, Johnsongrass",Johnsongrass [5]; 9 g/are,5 (0)
same,"Phytotoxicity, Cotton",cotton; 2.5 g/are,0 (100)
same,"Phytotoxicity, Cotton",cotton; 10 g/are,2 (80-89)
same,"Phytotoxicity, Soybean",soybean [6]; 2.5 g/are,0 (100)
same,"Phytotoxicity, Soybean",soybean [6]; 10 g/are,0 (100)
same,"Herbicidal activity, Velvetleaf",velvetleaf [7]; 1.25 g/are,5 (0)
same,"Herbicidal activity, Velvetleaf",velvetleaf [7]; 5 g/are,5 (0)
same,"Phytotoxicity, Rice plant",rice plant; 1.25 g/are,1 (90-99)
same,"Phytotoxicity, Rice plant",rice plant; 2.5 g/are,1 (90-99)
same,"Phytotoxicity, Soybean",soybean [8]; 3 g/are,0 (100)
same,"Phytotoxicity, Soybean",soybean [8]; 9 g/are,0 (100)
same,"Herbicidal activity, Velvetleaf",velvetleaf [9]; 3 g/are,5 (0)
same,"Herbicidal activity, Velvetleaf",velvetleaf [9]; 9 g/are,5 (0)
same,"Phytotoxicity, Corn",corn [10]; 2.5 g/are,1 (90-99)
same,"Phytotoxicity, Corn",corn [10]; 10 g/are,2 (80-89)
same,"Herbicidal activity, Sicklepod",sicklepod; 3 g/are,4 (1-10)
same,"Herbicidal activity, Sicklepod",sicklepod; 9 g/are,5 (0)
same,"Herbicidal activity, Hemp sesbania",hemp sesbania; 3 g/are,5 (0)
same,"Herbicidal activity, Hemp sesbania",hemp sesbania; 9 g/are,5 (0)
same,"Herbicidal activity, Wild mustard",wild mustard; 1.25 g/are,5 (0)
same,"Herbicidal activity, Wild mustard",wild mustard; 5 g/are,5 (0)
same,"Herbicidal activity, Barnyardgrass",barnyardgrass [11]; 1.25 g/are,1 (41-60)
same,"Herbicidal activity, Barnyardgrass",barnyardgrass [11]; 5 g/are,5 (0)
same,"Herbicidal activity, Hardstem bulrush",hardstem bulrush,4 (1-10)
same,"Herbicidal activity, Wild cat",wild oat; 1.25 g/are,1 (41-60)
same,"Herbicidal activity, Wild cat",wild oat; 5 g/are,5 (0)
same,"Herbicidal activity, Velvetleaf",velvetleaf [12]; 2.5 g/are,5 (0)
same,"Herbicidal activity, Velvetleaf",velvetleaf [12]; 10 g/are,5 (0)
same,"Herbicidal activity, Green foxtail",green foxtail [13]; 3 g/are,5 (0)
same,"Herbicidal activity, Green foxtail",green foxtail [13]; 9 g/are,5 (0)
same,"Herbicidal activity, Large crabgrass",large crabgrass; 3 g/are,5 (0)
same,"Herbicidal activity, Large crabgrass",large crabgrass; 9 g/are,5 (0)
